From the supplement of paper PMC13380429

Assays:
Settings in all cases: 72 h
HepG2 [1] = assay: relative viability EC50 (midpoint between 100% and the lowest measured viability); higher = less toxic
Calu-3 [2] = assay: as above
U2OS [3] = assay: as above
Vero E6 [4] = assay: as above
Caco-2 [5] = assay: as above
HepG2 [6] = assay: drug sensitivity score (DSS) for viability; higher = more toxic; extreme values may be limits of the assay
Calu-3 [7] = assay: as above
U2OS [8] = assay: as above
Vero E6 [9] = assay: as above
Caco-2 [10] = assay: as above
HepG2 [11] = assay: cell viability relative to DMSO; higher = less toxic
Calu-3 [12] = assay: as above
U2OS [13] = assay: as above
Vero E6 [14] = assay: as above
Caco-2 [15] = assay: as above

SMILES	relative viability EC50 (HepG2 [1]) [µM]	relative viability EC50 (Calu-3 [2]) [µM]	relative viability EC50 (U2OS [3]) [µM]	relative viability EC50 (Vero E6 [4]) [µM]	relative viability EC50 (Caco-2 [5]) [µM]	drug sensitivity score (HepG2 [6])	drug sensitivity score (Calu-3 [7])	drug sensitivity score (U2OS [8])	drug sensitivity score (Vero E6 [9])	drug sensitivity score (Caco-2 [10])	cell viability (HepG2 [11]; 1 nM) [%]	cell viability (HepG2 [11]; 10 nM) [%]	cell viability (HepG2 [11]; 100 nM) [%]	cell viability (HepG2 [11]; 1000 nM) [%]	cell viability (HepG2 [11]; 10000 nM) [%]	cell viability (Calu-3 [12]; 1 nM) [%]	cell viability (Calu-3 [12]; 10 nM) [%]	cell viability (Calu-3 [12]; 100 nM) [%]	cell viability (Calu-3 [12]; 1000 nM) [%]	cell viability (Calu-3 [12]; 10000 nM) [%]	cell viability (U2OS [13]; 1 nM) [%]	cell viability (U2OS [13]; 10 nM) [%]	cell viability (U2OS [13]; 100 nM) [%]	cell viability (U2OS [13]; 1000 nM) [%]	cell viability (U2OS [13]; 10000 nM) [%]	cell viability (Vero E6 [14]; 1 nM) [%]	cell viability (Vero E6 [14]; 10 nM) [%]	cell viability (Vero E6 [14]; 100 nM) [%]	cell viability (Vero E6 [14]; 1000 nM) [%]	cell viability (Vero E6 [14]; 10000 nM) [%]	cell viability (Caco-2 [15]; 1 nM) [%]	cell viability (Caco-2 [15]; 10 nM) [%]	cell viability (Caco-2 [15]; 100 nM) [%]	cell viability (Caco-2 [15]; 1000 nM) [%]	cell viability (Caco-2 [15]; 10000 nM) [%]
Cc1cnc(-c2ccccc2C(C)C)nc1NCc1ccc(-n2ccnn2)cc1 [ML323]	> 10	> 10	> 10	> 10	> 10	0.8	0	0	0	0.5	99.1	94.2	112	96.5	82.2	91.6	108	105	97.3	110	94.9	103	95.8	102	97.9	89.6	90	87.6	89.7	99.4	90.2	101	92.2	95.8	81
NC(=O)CNCCC(c1ccccc1)c1ccccc1 [N20C]	> 10	> 10	> 10	> 10	> 10	0	0	0	0	0	97.3	93.6	106	111	94.9	109	97.5	96.6	99.4	106	106	99.4	100	99.2	102	96.9	106	98.2	98.1	97.6	107	98.4	89.4	97.2	103
CC(=O)N[C@@H](Cc1ccc(O)cc1)C(=O)O [N-acetyl-tyrosine]	> 10	> 10	> 10	> 10	> 10	0	0	0	0	0	93.9	88.5	93.8	97.7	98.2	105	107	108	106	94.6	95.3	101	96.6	101	107	98.6	93.4	94.3	95	101	92.7	92.8	91	95.6	102
